Results on three substances are retold here after article PMC4838890, “Dynamic and flexible H3K9me3 bridging via HP1β dimerization establishes a plastic state of condensed chromatin” (Nature Communications, 2016).

Entries after “also recorded” stand apart in the source; their conditions may differ.

In experiment [1] the test system is H3KC9me3 oligonucleosomes. In words: Chromatin coprecipitation, H3KC9me3 oligonucleosomes. The format is binding, Xenopus laevis. Here is the method:
(§1) 6.7 nM oligonucleosomes were incubated with 1 μM recombinant protein in 100 μl binding buffer (10 mM triethanolamine (pH 7.5), 150 mM NaCl, 5 mM MgCl2, 0.1 mM EDTA, 0.1% (v/v) Triton-X100) for 1 h on ice. Precipitated chromatin complexes were recovered by centrifugation at 16,100g for 30 min at 4°C. Pellets were washed once with 0.5 ml binding buffer and centrifuged for 15 min at 4 °C. Precipitated material was resuspended in 10 μl 1 × SDS loading buffer and boiled for 5 min before running on SDS–PAGE.
(§2) Supplementary Table 1: Summary of conditions used in the different experiments of this study.
(§3) experiment result modification template Temp. [NaCl] [MgCl2]
(§4) chromatin Fig. 1e,f; Fig. S1f-h; H3K9me3 oligo- 4 150 5

Experiment [2] deals with H3K9me0 and H3K9me3 chromatin. Particulars: cited from earlier work. The source says:
In our model, modulation of the general chromatin-binding mode is brought about by varying sequences in the HR and NT domains as well as possibly their post-translational modification in other HP1 proteins (different variants, different species). We think that within these regions the overall charge but not a particular sequence is mainly dictating the chromatin-binding properties.

For another experiment, the system named is H3K9me3 oligonucleosomes. In words: Chromatin coprecipitation, H3K9me3 oligonucleosomes. The class given is binding, Xenopus laevis. Particulars: chromatin coprecipitation, 5 mM MgCl2. Here is the method:
as §1, §2, §3, §4

The subject of a further experiment is DNA fragment of 150 bp. In words: Electrophoretic mobility shift assay (EMSA). The class given is binding. Particulars: 150 bp DNA, 0, 3, 9 μM protein, 100 mM NaCl, 5 mM MgCl2, RT. Here is the method:
50 ng 150 bp DNA amplified from the backbone of pUC18 was incubated with 0, 3, 9 μM recombinant protein in 10 μl EMSA buffer (10 mM Tris-HCl (pH 8.0), 100 mM NaCl, 5 mM MgCl2) for 20 min at room temperature (RT). 2 μl 50% (v/v) glycerol was added and samples were loaded onto 6% native PAGE gels. After electrophoresis, DNA was visualized by staining with 1 × SYBR Gold/0.25 × TBE for 20 min at RT. Images were captured using a ChemiDoc MP Imaging System (Bio-Rad, München, Germany). […]
crosslinking Fig. S6e,f nucleosomes […]
crosslinking Fig. S7a,b nucleosomes
EMSA Fig. 1g; Fig. 5c; n//a RT 100 5
1Preincubation of oligonucleosomes and h HP1β was performed at 4 °C . Measurements wer e carried out at the in dicated te mperature.
2in increments o f 0 .5 mM
3MgCl2 was added at the end of incubation to coprecipitate oligonucleosomes a nd bound hHP1β.

Experiment [3] concerns mouse embryonic stem cells (mESC). Description: ChIP-seq genome-wide correlation with H3K9me3. The class given is cell-based. Here is the method: For crosslink MNase ChIP of HP1β, 10^7 TT2 WT mouse ES cells were collected. Cells were crosslinked with 1% (v/v) formaldehyde in 10 ml of PBS for 10 min at RT, then quenched with 0.125 M glycine for 5 min. Cells were washed 1 × with PBS, and resuspended in 1 ml of EZ Nuclei Isolation Buffer (Sigma-Aldrich, Steinheim, Germany). The cytoplasmic supernatant was discarded and the pellet was flash frozen with liquid N2. […]
A third of ChIP and input DNA (10–20 ng total) underwent end repair with T4 and Klenow, A-tailing and adaptor ligation. […] Resulting PCR was then purified on 2% EX Gel (Life Technologies, Carlsbad, USA) at the 200–700 bp range, and quantified on Qubit and Agilent Tapestation. […]
Following published data sets were downloaded from NCBI/GEO for this study: SPR899601/ H3K9me3 SETDB1^f/− and SPR899602/H3K9me3 SETDB1^−/− both done with anti-H3K9me3 antibody (ab8898)[36]. Reads were processed and aligned to the mouse reference genome (mm9) using QuasR in R. Genomic alignment was performed twice using BOWTIE with the following parameters: --strata, --best and -m 1 or -m 99 to account for reads that map uniquely or up to 99 times in the mouse genome, respectively. For genome-wide comparisons, only uniquely mapping reads were used. Reads mapping up to 99 times were used for ERV analysis and genome browser visualization. […]

For Swi6: S. pombe HP1 protein, the “recovery with H3KC9me3 oligonucleosomes” value in experiment [1] (6.7 nM oligonucleosomes, 1 μM protein, 150 mM NaCl, 5 mM MgCl2) is “specificity of Swi6 association with H3K9me0 and H3K9me3 oligonucleosomes increased significantly when the chromatin was more saturated; also recorded: recovered to a higher degree in H3K9me3 chromatin coprecipitation compared with hHP1β”. For the same substance, the “molecules bound per nucleosome” value in experiment [1] (saturating protein concentrations) is “approximately four”. Besides, the “binding to unmodified chromatin” value in experiment [2] (ref [29]) is reported as “more pronounced binding to unmodified chromatin”.

Consider “hHP1α WT: recombinant human HP1α (GenBank BC006821) [reference compound]”, for which the “specificity for H3K9me3” value in the experiment on H3K9me3 oligonucleosomes is listed as “much less specificity for H3K9me3 compared with hHP1β”. For the same substance, the DNA binding entry with DNA fragment of 150 bp is on record as “high level of general DNA binding”. The “discrimination between H3K9me0 and H3K9me3 chromatin” value in experiment [2] (ref [12]) was “limited discrimination between H3K9me0 and H3K9me3 chromatin”.

Take “mHP1β: endogenous mouse HP1β; sequence identical to human HP1β”: in experiment [3] (conditional SETDB1 deletion, H3K9me3 data ref [36]), the “H3K9me3 loss on SETDB1 deletion at mHP1β-enriched sites” value is reported as “the strongest loss of H3K9me3 occurred at sites enriched for mHP1β in WT cells”. In experiment [3] (endogenous mHP1β, antibody-based ChIP-seq, 1 kb windows), the “Pearson's R, genome-wide correlation with H3K9me3” value came out at 0.77.
